Assay: Permanent solvent physical constant beta
Assay type: physicochemical
Settings: permanent solvent constant as defined by Kamlet et al.
From the text: The materials of the invention can be added to a mixture containing silver halide before coating or, more suitably, be mixed with the silver halide just prior to or during coating. In either case, additional components like couplers, […], surfactants, hardeners and other materials that are typically present in such solutions may also be present at the same time. The materials of the invention are not water-soluble and cannot be added directly to the solution. They may be added directly if dissolved in an organic water miscible solution such as methanol, acetone or the like or more preferably as a dispersion. A dispersion incorporates the material in a stable, finely divided state in a hydrophobic organic solvent (often referred to as a coupler solvent or permanent solvent) that is stabilized by suitable surfactants and surface active agents usually in combination with a binder or matrix such as gelatin. The dispersion may contain one or more permanent solvents that dissolve the material and maintain it in a liquid state. Some examples of suitable permanent solvents are tricresylphosphate, N,N-diethyllauramide, N,N-dibutyllauramide, p-dodecylphenol, dibutylphthalate, di-n-butyl sebacate, N-n-butylacetanilide, 9-octadecen-1-ol, ortho-methylphenyl benzoate, trioctylamine and 2-ethylhexylphosphate. Permanent solvents can also be described in terms of physical constants such as alpha, beta and pi* as defined by M. J. Kamlet, J-L. M. Abboud, M. H. Abraham and R. W. Taft, J. Org Chem, 48, 2877(1983). The preferred permanent solvents used with the materials of the invention are those with ClogP of 5.0 or greater and beta values of 0.4 or greater or more preferably, beta values of 0.5 or greater. Preferred classes of solvents are carbonamides, phosphates, alcohols and esters. When a solvent is present, it is preferred that the weight ratio of compound to solvent be at least 1 to 0.5, or most preferably, at least 1 to 1. […]

Row | Structure (SMILES) | beta
1 | CCCCCCCC/C=C\CCCCCCCCO [(Z)-9-octadecen-1-ol] | 0.71
2 | Cc1ccccc1OC(=O)c1ccccc1 [ortho-methylphenyl benzoate] | 0.43
3 | CCCCCCCCCCCC(=O)N(CCCC)CCCC [N,N-dibutyllauramide] | 0.93

From patent publication US6455242B1, “Color photographic element containing speed improving compound” (Eastman Kodak Company, priority 1998, dated 2002)
